# Test results: patent US12435044B2, “Pyridazinone herbicides and pyridazinone intermediates used to prepare a herbicide” (FMC Corporation, priority 2018, dated 2025)
# Assays:
# Assay in all cases: Test K pre-/postemergence, mixtures of Cpd. No. 20 with metribuzin or rimsulfuron
# Assay type in all cases: in vivo
# [1] = tested on: common ragweed (AMBEL; Ambrosia artemisiifolia)
# Excerpt: (§1) This test evaluated the effect of mixtures of Cpd. No. 20 with metribuzin or rimsulfuron on several plant species. Seeds of plant species selected from corn (ZEAMD; Zea mays, cv. ‘Pioneer 1184’), soybean (GLXMA; Glycine max, cv. Pioneer 35T58), giant foxtail (SETFA; Setaria faberi), palmer amaranth (AMAPA; Amaranthus palmeri), common waterhemp (AMATU; Amaranthus rudis), mare's tail (ERICA; Conyza canadensis), and common ragweed (AMBEL; Ambrosia artemisiifolia) were planted in pots containing Tama Silt Loam soil and treated preemergence with a directed soil spray using test chemicals formulated in a non-phytotoxic solvent mixture which included a surfactant.
# (§2) At the same time, plants selected from these crop and weed species were planted in pots containing Redi-Earth® planting medium (Scotts Company, 14111 Scottslawn Road, Marysville, Ohio 43041) comprising spaghnum peat moss, vermiculite, wetting agent and starter nutrients and treated postemergence with test chemicals formulated in the same manner. Plants ranged in height from 2 to 10 cm and were in the one- to two-leaf stage for the postemergence treatment. Treated plants and untreated controls were maintained in a greenhouse for approximately 14-21 d, after which time all treated plants were compared to untreated controls and visually evaluated for injury. Plant response ratings, summarized in Tables K1 to K4, are based on a 0 to 100 scale where 0 is no effect and 100 is complete control. A dash (-) response means no test result. Test results are presented as a mean of 4 reps.
# [2] = tested on: common waterhemp (AMATU; Amaranthus rudis)
# Excerpt: as §1, §2
# [3] = tested on: corn (ZEAMD; Zea mays, cv. ‘Pioneer 1184’)
# Excerpt: as §1, §2
# [4] = tested on: giant foxtail (SETFA; Setaria faberi)
# Excerpt: as §1, §2
# [5] = tested on: mare's tail (ERICA; Conyza canadensis)
# Excerpt: as §1, §2
# [6] = tested on: palmer amaranth (AMAPA; Amaranthus palmeri)
# Excerpt: as §1, §2
# [7] = tested on: soybean (GLXMA; Glycine max, cv. Pioneer 35T58)
# Excerpt: as §1, §2
smiles,measurement,setting,value
"CSc1nnc(C(C)(C)C)c(=O)n1N [Metribuzin, metribuzin, reference compound]","AMBEL plant response rating, 0 to 100 scale","[1]; postemergence, 62 g a.i./ha",55
same,"AMBEL plant response rating, 0 to 100 scale","[1]; postemergence, 125 g a.i./ha",62
same,"AMBEL plant response rating, 0 to 100 scale","[1]; preemergence, 62 g a.i./ha",40
same,"AMBEL plant response rating, 0 to 100 scale","[1]; preemergence, 125 g a.i./ha",100
same,"AMATU plant response rating, 0 to 100 scale","[2]; postemergence, 62 g a.i./ha",37
same,"AMATU plant response rating, 0 to 100 scale","[2]; postemergence, 125 g a.i./ha",82
same,"AMATU plant response rating, 0 to 100 scale","[2]; preemergence, 62 g a.i./ha",53
same,"AMATU plant response rating, 0 to 100 scale","[2]; preemergence, 125 g a.i./ha",86
same,"ZEAMD plant response rating, 0 to 100 scale","[3]; postemergence, 62 g a.i./ha",0
same,"ZEAMD plant response rating, 0 to 100 scale","[3]; postemergence, 125 g a.i./ha",10
same,"ZEAMD plant response rating, 0 to 100 scale","[3]; preemergence, 62 g a.i./ha",0
same,"ZEAMD plant response rating, 0 to 100 scale","[3]; preemergence, 125 g a.i./ha",0
same,"SETFA plant response rating, 0 to 100 scale","[4]; postemergence, 62 g a.i./ha",0
same,"SETFA plant response rating, 0 to 100 scale","[4]; postemergence, 125 g a.i./ha",10
same,"SETFA plant response rating, 0 to 100 scale","[4]; preemergence, 62 g a.i./ha",30
same,"SETFA plant response rating, 0 to 100 scale","[4]; preemergence, 125 g a.i./ha",80
same,"ERICA plant response rating, 0 to 100 scale","[5]; postemergence, 62 g a.i./ha",10
same,"ERICA plant response rating, 0 to 100 scale","[5]; postemergence, 125 g a.i./ha",13
same,"ERICA plant response rating, 0 to 100 scale","[5]; preemergence, 62 g a.i./ha",100
same,"ERICA plant response rating, 0 to 100 scale","[5]; preemergence, 125 g a.i./ha",100
same,"AMAPA plant response rating, 0 to 100 scale","[6]; postemergence, 62 g a.i./ha",35
same,"AMAPA plant response rating, 0 to 100 scale","[6]; postemergence, 125 g a.i./ha",47
same,"AMAPA plant response rating, 0 to 100 scale","[6]; preemergence, 62 g a.i./ha",78
same,"AMAPA plant response rating, 0 to 100 scale","[6]; preemergence, 125 g a.i./ha",70
same,"GLXMA plant response rating, 0 to 100 scale","[7]; postemergence, 62 g a.i./ha",33
same,"GLXMA plant response rating, 0 to 100 scale","[7]; postemergence, 125 g a.i./ha",53
same,"GLXMA plant response rating, 0 to 100 scale","[7]; preemergence, 62 g a.i./ha",0
same,"GLXMA plant response rating, 0 to 100 scale","[7]; preemergence, 125 g a.i./ha",0
"CCS(=O)(=O)c1cccnc1S(=O)(=O)NC(=O)Nc1nc(OC)cc(OC)n1 [Rimsulfuron, rimsulfuron, reference compound]","AMBEL plant response rating, 0 to 100 scale","[1]; postemergence, 8 g a.i./ha",40
same,"AMBEL plant response rating, 0 to 100 scale","[1]; postemergence, 16 g a.i./ha",60
same,"AMBEL plant response rating, 0 to 100 scale","[1]; preemergence, 8 g a.i./ha",0
same,"AMBEL plant response rating, 0 to 100 scale","[1]; preemergence, 16 g a.i./ha",43
same,"AMATU plant response rating, 0 to 100 scale","[2]; postemergence, 8 g a.i./ha",75
same,"AMATU plant response rating, 0 to 100 scale","[2]; postemergence, 16 g a.i./ha",77
same,"AMATU plant response rating, 0 to 100 scale","[2]; preemergence, 8 g a.i./ha",51
same,"AMATU plant response rating, 0 to 100 scale","[2]; preemergence, 16 g a.i./ha",73
same,"ZEAMD plant response rating, 0 to 100 scale","[3]; postemergence, 8 g a.i./ha",0
same,"ZEAMD plant response rating, 0 to 100 scale","[3]; postemergence, 16 g a.i./ha",10
same,"ZEAMD plant response rating, 0 to 100 scale","[3]; preemergence, 8 g a.i./ha",0
same,"ZEAMD plant response rating, 0 to 100 scale","[3]; preemergence, 16 g a.i./ha",0
same,"SETFA plant response rating, 0 to 100 scale","[4]; postemergence, 8 g a.i./ha",80
same,"SETFA plant response rating, 0 to 100 scale","[4]; postemergence, 16 g a.i./ha",97
same,"SETFA plant response rating, 0 to 100 scale","[4]; preemergence, 8 g a.i./ha",50
same,"SETFA plant response rating, 0 to 100 scale","[4]; preemergence, 16 g a.i./ha",73
same,"ERICA plant response rating, 0 to 100 scale","[5]; postemergence, 8 g a.i./ha",50
same,"ERICA plant response rating, 0 to 100 scale","[5]; postemergence, 16 g a.i./ha",70
same,"ERICA plant response rating, 0 to 100 scale","[5]; preemergence, 8 g a.i./ha",95
same,"ERICA plant response rating, 0 to 100 scale","[5]; preemergence, 16 g a.i./ha",98
same,"AMAPA plant response rating, 0 to 100 scale","[6]; postemergence, 8 g a.i./ha",60
same,"AMAPA plant response rating, 0 to 100 scale","[6]; postemergence, 16 g a.i./ha",60
same,"AMAPA plant response rating, 0 to 100 scale","[6]; preemergence, 8 g a.i./ha",33
same,"AMAPA plant response rating, 0 to 100 scale","[6]; preemergence, 16 g a.i./ha",40
same,"GLXMA plant response rating, 0 to 100 scale","[7]; postemergence, 8 g a.i./ha",75
same,"GLXMA plant response rating, 0 to 100 scale","[7]; postemergence, 16 g a.i./ha",93
same,"GLXMA plant response rating, 0 to 100 scale","[7]; preemergence, 8 g a.i./ha",0
same,"GLXMA plant response rating, 0 to 100 scale","[7]; preemergence, 16 g a.i./ha",0
